Experimental data reported in US7541457B2, “Amphiphilic trisulfonated porphyrazines for photodynamic applications in medicine” (Universite de Sherbrooke, priority 2003, dated 2009).

Columns and labels:
[1] = test system: EMT-6 murine mammary tumor cells; assay: Phototoxicity (cellular photoinactivation, MTT) against EMT-6 tumor cells in vitro; format: cell-based; conditions: for LD90 (light dose for 90% cell kill): dye 1 μM, red light 660-700 nm
[2] = test system: EMT-6 mammary tumours; assay: PDT of EMT-6 mammary tumors in BALB/c mice; format: in vivo
Method: All experiments were performed on male BALB/c mice (18-22g) (Charles River Breeding Laboratories, Montreal, Quebec, Canada) bearing two EMT-6 mammary tumours. The experiments were conducted following a protocol approved by the Canadian Council on Animal Care and the in-house ethics committee. Animals were allowed free access to water and food throughout the experiments. Before tumour implantation, hair on the hind legs and the backs of the mice was removed by shaving and chemical depilating (Nair, Whitehall, Mississauga, Canada). The two tumors were implanted on the backs of the animals by intradermal injection of 2-3×10^5 EMT-6 cells suspended in 0.05 ml Waymouth's growth medium.
For PDT tumor response studies, mice were used 7-10 d after tumor cell inoculation (mean external tumor size 4.5-6.0 mm diameter and approximately 2.5 mm thickness). The mice were given an intravenous administration of […] of porphyrazine dye in PBS (0.2 mL/20 g) through the tail vein. […] Mice were examined daily for 20 days following PDT in order to assess tumor response (necrosis) and recurrence.
At the highest dye dose over 50% of the animals responded with complete tumor regression as observed 3 weeks after treatment.

[3] = test system: plasma extravasation in STZ-diabetic rat retinal vessels; assay: PDT of plasma extravasation (Evans Blue) in STZ-diabetic rat retina; format: in vivo, Wistar rats; conditions: for Inhibition of plasma extravasation: 0.5 μmole/kg
Method: (§1) The long established Evans Blue technique was used to measure plasma extravasation. Under anesthesia with a 10 mg/kg mixture of Ketamine and Xylazine, 250 g male wistar rats were injected with 45 mg/kg Evans Blue through a canula placed in the jugular vein. Ten minutes later, the experimental procedure was started. At the end of experiments, the animals were sacrificed and their eyes were enucleated. Both eyes combined were placed into 300 μl of formamide and incubated at 70° C. for 18 hours. Following incubation the supernatant absorbance at 620 nm was read with a spectrophotometer. A standard curve was used to determine the concentration of Evans Blue, which was expressed in μg/ml.
After an overnight fast, diabetes was induced with a single 65 mg/kg intraperitoneal injection of streptozotocin (STZ) in 10 mM citrate buffer, pH 4.5. Animals that served as non diabetic controls received an equivalent amount of citrate buffer alone. One week later, just prior to experimentation, blood glucose levels were measured to determine diabetic status. Only rats with blood glucose higher than 20 mM were deemed STZ-diabetic.
Conscious rats were injected with the photosensitizing drug through the tail vein six hours prior to irradiation with red light onto the retina. […] Subsequently the eyes were enucleated and tested for Evan's Blue levels.

[4] = test system: EMT-6 mammary tumours; assay: PDT of EMT-6 mammary tumors in BALB/c mice; format: in vivo; conditions: for Necrosis (flat and necrotic tissue within 2 days post-PDT): light 24 h later, 670 nm, 400 J/cm^2
[5] = test system: Vascular Endothelial Growth Factor evoked plasma extravasation; assay: PDT of VEGF-165 evoked plasma extravasation (Evans Blue) in rat retina; format: in vivo, Wistar rats
Method: as §1
Rats anesthetized with a mixture of Ketamine and Zylazine (10 mg/kg) were injected with 2 μl of VEGF-165 prepared in saline, directly into the vitreous, using a Hamilton micro syringe. A period of 10 min was allotted for the plasma extravasation response to occur. After the response to VEGF-165 developed, the eyes were enucleated and subjected to spectrophotometric analysis for Evan's Blue.
[…] […] Subsequently the eyes were enucleated and tested for Evan's Blue levels.

Substance	LD90 (light dose for 90% cell kill) ([1]; 6 h incubation) [J · cm^−2]	LD90 (light dose for 90% cell kill) ([1]; 24 h incubation) [J · cm^−2]	Relative phototoxicity within the alkylyl series ([1]; compounds 45-49, 6 h and 24 h incubation)	Tumor response (flattening and necrosis) within 48 h after PDT ([2]; all dye doses used, 0.5-1 μmole/kg)	Mortality ([2]; any of the dye and light doses used)	Mortality ([2]; dye dose 1 μmole/kg) [%]	Necrosis (flat and necrotic tissue within 2 days post-PDT) ([2]; dye dose 1 μmole/kg i.v., light 24 h later, 670 nm, 400 J/cm^2) [%]	Inhibition of plasma extravasation ([3]; light 6 h after drug, 45 J/cm2, total fluence 3 J)	Plasma extravasation after PDT ([3]; STZ-diabetic rats, interval drug to light extended from 1 hour up to 6 hours)	Relative potency as inhibitor of plasma extravasation ([3]; among the five molecules tested, light 6 h after drug)	Inhibition of plasma extravasation ([3]; diabetic rats, red light 680 nm, 25 mW/cm^2, 20 J/cm^2)	Cure (absence of a palpable tumor 3 weeks post-PDT) ([4]; dye dose 0.5 μmole/kg) [%]	Mortality ([4]; dye dose 0.5 μmole/kg) [%]	Necrosis (flat and necrotic tissue within 2 days post-PDT) ([4]; dye dose 0.5 μmole/kg i.v.) [%]	Cure (absence of a palpable tumor 3 weeks post-PDT) ([4]; dye dose 0.75 μmole/kg) [%]	Mortality ([4]; dye dose 0.75 μmole/kg) [%]	Necrosis (flat and necrotic tissue within 2 days post-PDT) ([4]; dye dose 0.75 μmole/kg i.v.) [%]	Inhibition of plasma extravasation ([5]; VEGF-165 injected rats, 0.5 μmole/kg, red light 680 nm, 25 mW/cm^2, 20 J/cm^2)	Plasma extravasation after PDT ([5]; VEGF-165 treated STZ-diabetic rats, 5 hour interval between photosensitizer administration and light)
zinc trisulfophthalocyanine [ZnPcS3, reference compound]	5.9	2.2																	
Zinc tri-(4-sulfobenzo)-5-mono-[(1-hexynyl)naphtho]-porphyrazine [Compound 46]	4.1	1.2	highest phototoxicity	All treated tumors responded	No mortality occurred	0	100	completely inhibited plasma extravasation	reduced plasma extravasation to the level of control non-diabetic rats	most potent inhibitor of plasma extravasation	completely inhibited plasma extravasation to control levels	0	0	100	20	0	100	completely inhibited plasma extravasation to control levels	reach control levels
